Data: PubChem BioAssay (NCI)
≈ marks a conversion by molar mass, not a printed value.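 All cell lines were grown in 96-well plates and treated with compound for 48 hours. At the GI50, growth is halved. At the TGI there is no net growth.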

Key:
Test in all cases: growth of human tumour cells (NCI), 48 h
[1] = system: KM12 colon
[2] = system: CAKI-1 renal
[3] = system: A549 NSCLC
[4] = system: HCT-15 colon
[5] = system: RXF 393 renal
[6] = system: OVCAR-3 ovarian
[7] = system: NCI-H460 lung
[8] = system: HCT-116 colon
[9] = system: NCI-H23 lung
[10] = system: SNB-75 CNS

Row | Structure (SMILES) | TGI [1] | TGI [2] | TGI [3] | TGI [4] | TGI [5] | TGI [6] | TGI [7] | TGI [8] | TGI [9] | TGI [10] | GI50 [1] | GI50 [3] | GI50 [4] | GI50 [6] | GI50 [7] | GI50 [8] | GI50 [10] | GI50 [9]
1 | CC1C(OS(=O)(=O)c2ccc3[nH]c(=S)sc3c2)CC2C3(C)CCC2(C(C)C(=O)O)C(O)C13 (stereo not given) | 52.4 µM | 64.3 µM | > 100 µM | 27.1 µM | 61.2 µM | 42.5 µM | > 100 µM | 27.3 µM | 38.3 µM | – | – | – | – | – | – | – | – | –
2 | O=c1[nH]c2ccccc2c2oc3ccccc3c12 | > 100 µM | > 100 µM | > 100 µM | > 100 µM | > 100 µM | > 100 µM | > 100 µM | – | > 100 µM | 32.6 µM | – | – | – | – | – | – | – | –
3 | NCCCCNOCCCN | > 100 µM | > 100 µM | > 100 µM | – | > 100 µM | > 100 µM | > 100 µM | > 100 µM | > 100 µM | > 100 µM | – | – | – | – | – | – | – | –
4 | CC1=C(C(=O)NNC(=O)C[N+](C)(C)C)CC(C(=O)NNC(=O)C[N+](C)(C)C)=C(C)N1 | > 100 µM | > 100 µM | > 100 µM | > 100 µM | > 100 µM | > 100 µM | > 100 µM | > 100 µM | > 100 µM | – | – | – | – | – | – | – | – | –
5 | C(=C\c1cc[n+](CCc2ccccc2)cc1)/c1ccccc1 | 18.2 µM | 86.1 µM | 51.8 µM | > 100 µM | > 100 µM | 26.5 µM | > 100 µM | 65.4 µM | 43.7 µM | > 100 µM | – | – | – | – | – | – | – | –
6 | CCc1nc(N)nc(N)c1-c1ccc(N2CCOCC2)c(N=[N+]=[N-])c1 | > 100 µM | > 100 µM | > 100 µM | > 100 µM | > 100 µM | > 100 µM | > 100 µM | > 100 µM | > 83.7 µM | > 100 µM | – | – | – | – | – | – | – | –
7 | CC(C)(C)OC(=O)CC(NC(=O)OCc1ccccc1)NC(=O)OC(C)(C)C (stereo not given) | – | – | – | – | – | – | – | – | – | – | 40.3 µg/mL (≈ 102 µM) | 35.2 µg/mL | 56 µg/mL (≈ 142 µM) | 62.7 µg/mL (≈ 159 µM) | 39.8 µg/mL (≈ 101 µM) | 52.1 µg/mL (≈ 132 µM) | 20.8 µg/mL (≈ 52.7 µM) | 39.1 µg/mL (≈ 99.2 µM)
8 | COc1cc(S(=O)(=O)Nc2nc(-c3ccc(N=Cc4ccccc4O)cc3)cs2)ccc1Cl | > 100 µM | > 100 µM | > 100 µM | > 100 µM | > 100 µM | > 100 µM | > 100 µM | > 100 µM | > 100 µM | > 100 µM | – | – | – | – | – | – | – | –
9 | CC(C)C(=O)Cc1ccc2ccccc2n1 | > 100 µM | > 100 µM | > 100 µM | > 100 µM | > 100 µM | > 100 µM | > 100 µM | > 100 µM | > 100 µM | > 100 µM | – | – | – | – | – | – | – | –
10 | CCOC(=O)c1c(C)n(-c2ccc(C)cc2)c(=O)c2ccccc2c(=O)c2c(=O)ccc(=O)c1=2 | 30.3 µM | 28.1 µM | 58.1 µM | 35.1 µM | 41.3 µM | 29.8 µM | 44.9 µM | 33.3 µM | 32 µM | 81.7 µM | – | – | – | – | – | – | – | –
11 | O=c1c2ccccc2nc2n1CCc1c-2[nH]c2ccccc12 | – | 47.9 µM | 37.4 µM | – | 34.5 µM | – | – | 31.3 µM | 37.4 µM | 40.7 µM | – | 14.5 µM | – | – | – | – | – | –
12 | CC(=O)Nc1ccc2c(c1)C(=O)c1ccccc1-2 | > 100 µM | – | > 100 µM | > 100 µM | > 100 µM | > 100 µM | > 100 µM | > 100 µM | > 100 µM | > 100 µM | – | – | – | – | – | – | – | –
13 | COc1cc(CCN)c(OC)c(OC)c1 | > 100 µM | > 100 µM | > 100 µM | > 100 µM | > 100 µM | > 100 µM | > 100 µM | > 100 µM | > 100 µM | > 100 µM | – | – | – | – | – | – | – | –
14 | O=S1(=O)C(=C(c2ccccc2)c2ccccc2)S(=O)(=O)c2ccccc21 | > 100 µM | > 100 µM | > 100 µM | > 100 µM | > 100 µM | > 100 µM | > 100 µM | > 100 µM | > 100 µM | 44.4 µM | – | – | – | – | – | – | – | –
